Experiments:
[1] = system: SARS-CoV-2 isolate BetaCoV/France/IDF0372/2020 (SARS-CoV-2 Paris); test: SARS-CoV-2 anti-viral assay Paris (viral genomes by RT-qPCR); type: cell-based; settings: Severe acute respiratory syndrome coronavirus 2; SARS-CoV-2 Paris isolate, 48 hours
[2] = system: SARS-CoV-2, isolate USA-WA1/2020 (SARS-CoV-2 New York); test: SARS-CoV-2 anti-viral assay New York (N-protein staining); type: cell-based; settings: Severe acute respiratory syndrome coronavirus 2; SARS-CoV-2 New York isolate, 48 hours; read-out: Anti-Viral NY IC50
[3] = system: SARS-CoV-2 isolate BetaCoV/France/IDF0372/2020 (SARS-CoV-2 Paris); test: Viral quantification via plaque assay in Paris; type: cell-based; settings: Severe acute respiratory syndrome coronavirus 2
[4] = system: SARS-CoV-2; test: microbe, parasite or virus in culture; type: cell-based; settings: Severe acute respiratory syndrome coronavirus 2, read-out: IC50 for anti-SARS-CoVID-19 activity
[5] = 10 μM
[6] = 10 μM; remark: listed apart in the source
[7] = 10 μM; remark: listed apart in the source
[8] = biological target: p38β (Homo sapiens (Human), UniProt Q15759); test: Surface plasmon resonance (SPR) assay, Biacore T200
Chain of p38β (Q15759 whole entry): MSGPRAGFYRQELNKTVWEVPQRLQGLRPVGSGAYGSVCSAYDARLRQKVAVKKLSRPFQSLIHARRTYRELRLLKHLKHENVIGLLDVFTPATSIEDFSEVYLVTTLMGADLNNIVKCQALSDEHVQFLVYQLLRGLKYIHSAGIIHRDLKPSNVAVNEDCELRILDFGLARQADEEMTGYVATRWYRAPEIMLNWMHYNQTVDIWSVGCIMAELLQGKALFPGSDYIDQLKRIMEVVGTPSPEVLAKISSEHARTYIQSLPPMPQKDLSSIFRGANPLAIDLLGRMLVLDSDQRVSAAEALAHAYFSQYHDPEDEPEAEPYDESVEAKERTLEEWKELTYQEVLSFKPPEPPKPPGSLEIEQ

SMILES | IC50 [1] | IC50 [2] | IC50 [3] | IC50 [4] | stable in human plasma [5] | stable in monkey plasma [6] | stable in rat plasma [7] | Kd [8]
O=C(Nc1ccc(CN2CCC(O)CC2)cc1)c1ccc(Cl)cc1 [Compound 11, 4-chloro-N-(4-((4-hydroxypiperidin-1-yl)methyl)phenyl)benzamide] | 1600 nM | 200 nM | 2100 nM | < 10 µM | – | – | – | –
O=C(Nc1ccc(CN2C[C@H]3COC[C@H]3C2)cc1)c1ccc(Cl)cc1 [Compound 10, 4-chloro-N-(4-(((3aR,6aS)-tetrahydro-1H-furo[3,4-c]pyrrol-5(3H)—1)methyl)phenyl)benzamide] | 1300 nM | 200 nM | 2800 nM | – | at least 4 hours | at least 4 hours | at least 4 hours | –
O=C(Nc1ccc(CN2CCC(O)C2)cc1)c1ccc(Cl)cc1 (stereo not drawn) [Compound 13, 4-chloro-N-(4-((3-hydroxypyrrolidin-1-yl)methyl)phenyl)benzamide] | 3400 nM | – | – | < 10 µM | – | – | – | –
O=C(Nc1ccc(CN2CC3(COC3)C2)cc1)c1ccc(Cl)cc1 [Compound 2, N-(4-((2-oxa-6-azaspiro[3.3]heptan-6-yl)methyl)phenyl)-4-chlorobenzamide] | 7800 nM | 1200 nM | – | < 10 µM | – | – | – | –
O=C(Nc1ccc(CN2CCOCC2)cc1)c1cnc(Cl)nc1 [Compound 3, 2-chloro-N-(4-(morpholinomethyl)phenyl)pyrimidine-5-carboxamide] | 9400 nM | 1200 nM | – | < 10 µM | – | – | – | –
CN1CCN(Cc2ccc(NC(=O)c3ccc(Cl)cc3)cc2)CC1 [Compound 17, 4-chloro-N-(4-((4-methylpiperazin-1-yl)methyl)phenyl)benzamide] | 3600 nM | 700 nM | 2700 nM | < 10 µM | – | – | – | –
O=C(Nc1ccc(CN2CC3(CCOCC3)C2)cc1)c1ccc(Cl)cc1 [Compound 4, N-(4-((7-oxa-2-azaspiro[3.5]nonan-2-yl)methyl)phenyl)-4-chlorobenzamide] | 2100 nM | 700 nM | 1400 nM | < 10 µM | – | – | – | –
O=C(Nc1ccc(CN2CCC3(CCCO3)C2)cc1)c1ccc(Cl)cc1 (stereo not drawn) [Compound 6, N-(4-((1-oxa-7-azaspiro[4.4]nonan-7-yl)methyl)phenyl)-4-chlorobenzamide] | 2900 nM | 6400 nM | – | < 10 µM | at least 4 hours | at least 4 hours | at least 4 hours | < 10 nM
O=C(Nc1ccc(CN2CCCOCC2)cc1)c1ccc(Cl)cc1 [Compound 1, N-(4-((1,4-oxazepan-4-yl)methyl)phenyl)-4-chlorobenzamide] | 600 nM | 700 nM | 1800 nM | < 10 µM | at least 4 hours | at least 4 hours | at least 4 hours | < 10 nM
CC(=O)N1CCN(Cc2ccc(NC(=O)c3ccc(Cl)cc3)cc2)CC1 [Compound 14, N-(4-((4-acetylpiperazin-1-yl)methyl)phenyl)-4-chlorobenzamide] | – | – | – | – | at least 4 hours | at least 4 hours | at least 4 hours | < 10 nM
C[C@H]1CN(Cc2ccc(NC(=O)c3ccc(Cl)cc3)cc2)C[C@H](C)O1 [Compound 8, 4-chloro-N-(4-(((2S,6S)-2,6-dimethylmorpholino)methyl)phenyl)benzamide] | – | – | – | < 10 µM | at least 4 hours | at least 4 hours | at least 4 hours | < 10 nM
O=C(Nc1ccc(CN2C[C@@H]3COC[C@@H](C3)C2)cc1)c1ccc(Cl)cc1 [Compound 9, N-(4-(((1R,5S)-3-oxa-7-azabicyclo[3.3.1]nonan-7-yl)methyl)phenyl)-4-chlorobenzamide] | 3100 nM | – | – | – | – | – | – | –
